The source of these data is ChEMBL document CHEMBL1149139, “Azasugar-based MMP/ADAM inhibitors as antipsoriatic agents” (J Med Chem, 2004).

In general, Ki refers to the dissociation constant of the complex between target and ligand, obtained from inhibition or displacement. A word on the IC50: it is the midpoint of a concentration-inhibition curve. Low values mean greater potency, high ones weaker potency.

Assay [1] has as its target T1, Disintegrin and metalloproteinase domain-containing protein 17 (Homo sapiens, UniProt P78536). The experiment in a line: Inhibition of human tumor necrosis factor alpha converting enzyme.
A further assay concerns the target T2, Interstitial collagenase (Homo sapiens, UniProt P03956).
T2 sequence (P03956 whole entry): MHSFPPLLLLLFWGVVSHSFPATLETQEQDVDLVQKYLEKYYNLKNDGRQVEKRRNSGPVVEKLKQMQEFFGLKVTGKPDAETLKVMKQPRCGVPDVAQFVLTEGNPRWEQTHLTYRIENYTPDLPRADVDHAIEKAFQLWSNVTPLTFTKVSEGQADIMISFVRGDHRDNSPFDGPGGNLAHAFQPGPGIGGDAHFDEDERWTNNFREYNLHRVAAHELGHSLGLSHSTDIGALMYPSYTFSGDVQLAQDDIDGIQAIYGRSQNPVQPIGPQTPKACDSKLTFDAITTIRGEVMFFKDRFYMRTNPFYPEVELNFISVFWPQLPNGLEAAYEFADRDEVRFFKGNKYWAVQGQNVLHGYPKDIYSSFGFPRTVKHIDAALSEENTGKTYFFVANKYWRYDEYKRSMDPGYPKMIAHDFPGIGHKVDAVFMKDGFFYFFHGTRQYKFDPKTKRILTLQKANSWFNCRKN
Briefly: Inhibition of human recombinant matrix metalloprotease 1.

In assay [2] the target is T1, Disintegrin and metalloproteinase domain-containing protein 17. The experiment in a line: Inhibition of heparin-binding HB-EGF shedding.
The next assay concerns the target Stromelysin-1 (Homo sapiens, UniProt P08254). Briefly: Inhibition of human recombinant matrix metalloprotease 3.
Assay [3] deals with Matrix metalloproteinase-9 (Homo sapiens, UniProt P14780). Briefly: Inhibition of human recombinant matrix metalloprotease 9.
Sequence of Matrix metalloproteinase-9 (P14780 whole entry): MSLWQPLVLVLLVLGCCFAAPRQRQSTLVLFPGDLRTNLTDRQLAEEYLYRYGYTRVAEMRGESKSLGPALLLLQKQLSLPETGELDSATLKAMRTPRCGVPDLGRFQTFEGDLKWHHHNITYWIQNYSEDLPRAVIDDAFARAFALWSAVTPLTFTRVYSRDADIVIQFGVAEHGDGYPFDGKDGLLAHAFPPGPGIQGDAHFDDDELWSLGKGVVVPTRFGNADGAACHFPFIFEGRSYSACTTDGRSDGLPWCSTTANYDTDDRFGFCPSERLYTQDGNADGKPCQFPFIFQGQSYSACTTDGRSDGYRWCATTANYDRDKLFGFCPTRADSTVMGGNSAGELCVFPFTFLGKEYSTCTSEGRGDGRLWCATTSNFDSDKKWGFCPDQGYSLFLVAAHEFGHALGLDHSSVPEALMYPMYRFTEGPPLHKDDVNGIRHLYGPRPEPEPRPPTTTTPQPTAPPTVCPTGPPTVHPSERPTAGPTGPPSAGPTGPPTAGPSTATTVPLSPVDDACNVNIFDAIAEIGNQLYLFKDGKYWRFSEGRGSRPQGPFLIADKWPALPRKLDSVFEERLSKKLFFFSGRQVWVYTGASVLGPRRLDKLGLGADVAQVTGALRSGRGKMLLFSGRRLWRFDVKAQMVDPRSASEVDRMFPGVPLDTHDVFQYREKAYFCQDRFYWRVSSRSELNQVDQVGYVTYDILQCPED

T1 sequence (P78536 whole entry, the tested form may be a part): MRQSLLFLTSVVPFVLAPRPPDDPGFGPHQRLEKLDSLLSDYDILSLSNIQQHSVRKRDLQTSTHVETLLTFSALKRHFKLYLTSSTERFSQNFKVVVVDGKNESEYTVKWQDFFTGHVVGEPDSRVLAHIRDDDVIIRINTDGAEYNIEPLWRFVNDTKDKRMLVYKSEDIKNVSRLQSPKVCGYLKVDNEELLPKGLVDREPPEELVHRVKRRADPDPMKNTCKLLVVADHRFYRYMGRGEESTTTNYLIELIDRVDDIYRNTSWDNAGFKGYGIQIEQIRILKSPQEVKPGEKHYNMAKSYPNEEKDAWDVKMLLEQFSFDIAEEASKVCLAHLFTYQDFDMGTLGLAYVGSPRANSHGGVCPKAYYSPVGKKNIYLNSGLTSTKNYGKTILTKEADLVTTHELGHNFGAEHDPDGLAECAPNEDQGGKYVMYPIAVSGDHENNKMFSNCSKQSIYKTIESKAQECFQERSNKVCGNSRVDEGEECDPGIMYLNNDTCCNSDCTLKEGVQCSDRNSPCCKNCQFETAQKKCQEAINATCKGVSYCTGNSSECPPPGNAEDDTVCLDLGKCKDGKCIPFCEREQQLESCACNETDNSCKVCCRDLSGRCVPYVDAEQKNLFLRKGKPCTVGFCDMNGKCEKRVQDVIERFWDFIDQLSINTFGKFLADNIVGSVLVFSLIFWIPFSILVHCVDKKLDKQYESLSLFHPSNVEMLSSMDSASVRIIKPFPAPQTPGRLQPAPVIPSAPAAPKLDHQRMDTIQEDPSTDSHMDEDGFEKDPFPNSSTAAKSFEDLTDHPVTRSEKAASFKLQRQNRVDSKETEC
Sequence of Stromelysin-1 (P08254 whole entry): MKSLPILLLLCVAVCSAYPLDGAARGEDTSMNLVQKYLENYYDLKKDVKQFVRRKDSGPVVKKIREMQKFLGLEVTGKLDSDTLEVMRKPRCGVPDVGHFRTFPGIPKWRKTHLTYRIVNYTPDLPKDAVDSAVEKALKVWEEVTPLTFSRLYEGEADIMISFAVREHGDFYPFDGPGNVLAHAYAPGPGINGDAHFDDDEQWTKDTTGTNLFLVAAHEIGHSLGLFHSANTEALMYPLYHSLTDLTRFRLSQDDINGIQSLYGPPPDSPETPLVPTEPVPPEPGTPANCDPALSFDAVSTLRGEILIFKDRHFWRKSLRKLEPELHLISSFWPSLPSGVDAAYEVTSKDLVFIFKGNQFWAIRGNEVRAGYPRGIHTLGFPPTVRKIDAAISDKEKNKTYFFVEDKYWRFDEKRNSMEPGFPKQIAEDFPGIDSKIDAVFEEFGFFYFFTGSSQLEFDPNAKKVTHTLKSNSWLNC

As to `COc1ccc(S(=O)(=O)N2C[C@@H](O)[C@@H](O)[C@H](O)[C@@H]2C(=O)NO)cc1`, the Ki in assay [1] was determined as 15 nM; at Interstitial collagenase it was 26 nM. Further, the half-maximal inhibitory concentration (IC50) in assay [2] amounted to 450 nM.

With `O=C(NO)[C@H]1[C@@H](O)[C@H](O)[C@H](O)CN1S(=O)(=O)c1ccc(Oc2ccccc2)cc1`, the inhibition constant Ki in assay [1] turned out to be 6.2 nM; at Stromelysin-1, 0.35 nM; on Interstitial collagenase it was 5.3 nM. Besides, the IC50 in assay [2] is 340 nM.

For `O=C(NO)[C@H]1[C@@H](O)[C@H](O)[C@@H](O)CN1S(=O)(=O)c1ccc(Oc2ccccc2)cc1`, the IC50 in assay [2] was found to be 350 nM.

For `O=C(NO)[C@H]1[C@@H](O)[C@H](O)[C@H](O)CN1S(=O)(=O)c1ccc(OCc2ccccc2)cc1`, the Ki in assay [3] is 7.4 nM; in assay [1], 1.7 nM; at Stromelysin-1 it was 2.1 nM; on Interstitial collagenase it was above 850 nM. In assay [2], this compound came in with an IC50 of 84 nM.

In the case of `O=C(NO)[C@H]1[C@@H](O)[C@H](O)[C@H](O)CN1S(=O)(=O)c1ccc(-c2ccccc2)cc1`, the inhibitory constant (Ki) in assay [3] turned out to be 47 nM; in assay [1], 21 nM; at Stromelysin-1, 50 nM; at Interstitial collagenase it was 162 nM. In assay [2], this compound displayed an IC50 of 21000 nM.
